Measured values taken from US4849207A, “Porphyrin derivatives” (Nihon Medi-Physics Co., Ltd., priority 1985, dated 1989).

What was measured:
pancreatic cancer [1] = test: Scintigraphy in cancer-bearing hamster; type: in vivo; details: 300 μCi i.v., 72 and 96 hours after administration
Procedure: (§1) Scintigraphy was obtained 72 and 96 hours after the administration by the use of a gamma-camera equipped with a medium energy high resolution type collimator.

[2] = system: inflammation (croton oil induced); test: Distribution in inflammation-induced rats, inflammation to tissue; type: in vivo, SD rats
Procedure: SD rats of about 200 grams in bodyweight received croton oil (0.1 ml) at the right hind leg subcutaneously to induce inflammation. […] The radioactivity level ratio between the inflamation and each tissue was determined.

tumor = test: Distribution in cancer-bearing and inflammation-induced hamsters, tumor to tissue
Procedure: as §1

[3] = system: inflammation (turpentine oil induced); test: Distribution in cancer-bearing and inflammation-induced hamsters, inflammation to tissue; details: 72 hour post-injection
Procedure: as §1

pancreatic cancer [4] = test: Distribution of a radioactive diagnostic agent in cancer-bearing hamster (cancer/organ radioactivity level ratio); details: 300 μCi i.v., 96 hours after administration
Procedure: With lapse of time, the animals were sacrificed, and the organs were extracted and subjected to measurement of radioactivity and weight, from which the radioactivity level ratio between the cancer and each organ was determined.
With lapse of time, the animals were sacrificed, and the ogans were extracted and subjected to measurement of radioactivity and weight, from which the radioactivity level ratio between the cancer and each organ was determined.

[5] = SD rat, 72 hour post-injection, mean and s.d. for 3 animals
[6] = 72 hour post-injection, mean and s.d. for 3 animals, or mean for 2 animals
[7] = hamster, mean and s.d. for 3 animals, or mean for 2 animals

Q: With “2-[1-(^111 In-diethylenetriamine-tetraacetic acid-acetyloxyethane)oxyethyl]-4-[1-(2-hydroxyethyl)oxyethyl] Ga-deuteroporphyrin [^111 In--monoDTPA--EG Ga--DP]” as the substance, how does the “scintigraphic imaging of the locus of cancer” value (pancreatic cancer [1]) read?
A: the locus of cancer could be clearly imaged at both stages

Q: And the “Inflammation to tissue concentration ratio: Blood” value [2, 5]?
A: 185.25 ± 82.70

Q: And the “Inflammation to tissue concentration ratio: Heart” value [2, 5]?
A: 2.40 ± 0.63

Q: What about the “Inflammation to tissue concentration ratio: Kidney” value [2, 5] of the same substance?
A: 1.42 ± 0.35

Q: What about the “Inflammation to tissue concentration ratio: Liver” value [2, 5] of the same substance?
A: 0.14 ± 0.04

Q: And the “Inflammation to tissue concentration ratio: Lung” value [2, 5]?
A: 1.43 ± 0.32

Q: What about the “Inflammation to tissue concentration ratio: Muscle” value [2, 5] of the same substance?
A: 19.23 ± 10.45

Q: And the “Inflammation to tissue concentration ratio: Spleen” value [2, 5]?
A: 0.18 ± 0.03

Q: And the “accumulation in inflammation compared with ^67 Ga citrate (in words)” value ([2]; from Table 6)?
A: much lesser accumulation in inflammation than ^67 Ga citrate

Q: What about the “imaging of tumor compared with ^67 Ga citrate (in words)” value (tumor; 72 hour post-injection) of the same substance?
A: superior to ^67 Ga citrate

Q: And the “Tumor to tissue concentration ratio: Blood” value (tumor; [6])?
A: 55.75 ± 10.61

Q: What about the “Tumor to tissue concentration ratio: Heart” value (tumor; [6]) of the same substance?
A: 1.14 ± 0.28

Q: What about the “Tumor to tissue concentration ratio: Kidney” value (tumor; [6]) of the same substance?
A: 0.79 ± 0.08

Q: What about the “Tumor to tissue concentration ratio: Liver” value (tumor; [6]) of the same substance?
A: 0.21 ± 0.06

Q: And the “Tumor to tissue concentration ratio: Lung” value (tumor; [6])?
A: 0.52 ± 0.33

Q: And the “Tumor to tissue concentration ratio: Muscle” value (tumor; [6])?
A: 22.16 ± 6.53

Q: And the “Tumor to tissue concentration ratio: Spleen” value (tumor; [6])?
A: 0.16 ± 0.03

Q: And the “affinities to tumor and inflammation (in words)” value (tumor; from Table 5, compared with each other)?
A: nearly equal in affinities to tumor and inflammation

Q: What about the “imaging of inflammation compared with ^67 Ga citrate (in words)” value [3] of the same substance?
A: inferior to ^67 Ga citrate

Q: What about the “Inflammation to tissue concentration ratio: Blood” value [3, 7] of the same substance?
A: 22.96 ± 9.56

Q: And the “Inflammation to tissue concentration ratio: Heart” value [3, 7]?
A: 0.49 ± 0.26

Q: What about the “Inflammation to tissue concentration ratio: Kidney” value [3, 7] of the same substance?
A: 0.33 ± 0.13

Q: What about the “Inflammation to tissue concentration ratio: Liver” value [3, 7] of the same substance?
A: 0.21 ± 0.16

Q: And the “Inflammation to tissue concentration ratio: Lung” value [3, 7]?
A: 0.21 ± 0.14

Q: What about the “Inflammation to tissue concentration ratio: Muscle” value [3, 7] of the same substance?
A: 8.71 ± 2.98

Q: And the “Inflammation to tissue concentration ratio: Spleen” value [3, 7]?
A: 0.06 ± 0.01

Q: What about the “Cancer/Blood radioactivity level ratio” value (pancreatic cancer [4]) of the same substance?
A: 61.89

Q: And the “Cancer/Heart radioactivity level ratio” value (pancreatic cancer [4])?
A: 3.41

Q: And the “Cancer/Kidney radioactivity level ratio” value (pancreatic cancer [4])?
A: 0.91

Q: And the “Cancer/Liver radioactivity level ratio” value (pancreatic cancer [4])?
A: 0.53

Q: And the “Cancer/Lung radioactivity level ratio” value (pancreatic cancer [4])?
A: 1.33

Q: What about the “Cancer/Spleen radioactivity level ratio” value (pancreatic cancer [4]) of the same substance?
A: 0.43
